Assay results reported in ChEMBL document CHEMBL5518211, “Design, Synthesis, and Antitumor Activity Evaluation of Novel VISTA Small Molecule Inhibitors” (J Med Chem, 2024).

Assays:
[1] = biological target: T1, V-type immunoglobulin domain-containing suppressor of T-cell activation (Mus musculus, UniProt Q9D659); test: Binding affinity to mouse VISTA ECD assessed as dissociation constant by MST analysis
T1 sequence (Q9D659 whole entry): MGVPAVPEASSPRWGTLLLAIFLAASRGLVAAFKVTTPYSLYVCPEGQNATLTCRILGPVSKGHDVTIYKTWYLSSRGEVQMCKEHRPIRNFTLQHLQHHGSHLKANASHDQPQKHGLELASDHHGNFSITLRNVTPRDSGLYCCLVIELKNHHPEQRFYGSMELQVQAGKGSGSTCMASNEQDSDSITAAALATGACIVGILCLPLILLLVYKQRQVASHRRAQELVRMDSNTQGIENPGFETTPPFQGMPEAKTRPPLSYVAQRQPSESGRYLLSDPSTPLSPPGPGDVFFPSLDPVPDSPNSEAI

[2] = biological target: T2, V-type immunoglobulin domain-containing suppressor of T-cell activation (Homo sapiens, UniProt Q9H7M9)
T2 sequence (Q9H7M9 whole entry): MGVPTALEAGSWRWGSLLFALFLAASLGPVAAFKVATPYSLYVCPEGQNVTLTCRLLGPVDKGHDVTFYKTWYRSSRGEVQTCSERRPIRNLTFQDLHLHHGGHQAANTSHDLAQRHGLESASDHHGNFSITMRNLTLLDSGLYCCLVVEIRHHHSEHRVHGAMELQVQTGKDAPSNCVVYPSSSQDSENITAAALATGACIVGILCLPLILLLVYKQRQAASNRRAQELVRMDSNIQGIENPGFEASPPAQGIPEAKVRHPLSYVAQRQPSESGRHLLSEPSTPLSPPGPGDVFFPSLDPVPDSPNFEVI
Description: Binding affinity to human VISTA assessed as dissociation constant by MST analysis

Kd [1] [nM]	Kd [2] [µM]	SMILES
647		Cc1ccc2nc(Nc3nc(O)cc(CSc4nnc(C)s4)n3)nc(C)c2c1
	4.73	COC1C=C(CNCCNC(C)=O)N=C(Nc2cccc(O)c2)N1 (configuration not stated)
